Assay [1] has as its system CD8+ T cells. Nature of the assay: CD8 T cell activation (CD69) and degranulation (CD107a) after two-day in vivo treatment. Further details: species or system mice. The procedure:
FIGS. 3B-3E show activation of NK cells and T cells following exposure to the SHIP1 inhibitor 3AC in vivo. NK cells from two-day 3AC- or vehicle-treated mice were stimulated by incubation on uncoated plates, on plates coated with anti-NK1.1, anti-NKp46, or anti-NKG2D antibody, or on uncoated plates but in the presence of PMA and ionomycin. Representative flow plots (FIG. 3B) and box and whisker plots (FIG. 3C) show the frequency of NK cell production of IFNγ determined by intracellular flow cytometry. […] Anti-CD107a (LAMP-1) PE antibody was added for the final 5 hours of incubation. Degranulation of CD8+ T cells was determined by analysis of CD107a expression by flow cytometry. NK cells are defined as NK1.1+CD3ε− and CD8+ T cells as NK1.1-CD3ε+CD8+CD4−. Graphs are representative of at least two independent experiments with at least four 3AC- and vehicle-treated mice per group (FIGS. 3B-3C) or pooled data from two independent experiments is shown (FIGS. 3D-3F). FIG. 3C (unstim: n=4, p=0.0962, Unpaired t test with Welch's correction. NK1.1: n=4, p=0.0038, Two-tailed student's T test. NKG2D: n=4, p=0.0450, Two-tailed student's T test. NKp46: n=4, p=0.0144, Two-tailed student's T test. PMA: p=0.2945, Two-tailed student's T test). FIG. 3D (n=8, p=0.0153, Unpaired T test with Welch's correction). FIG. 3E (n=8, p=0.0009, Two-tailed student's T test) FIG. 3F (n=9, p=0.0083, Two-tailed student's T test).
To determine if SHIP inhibitors are also capable of activating the other major type of cytotoxic lymphocyte the responsiveness of CD8 T cells following the same, short-term, 3AC treatment was examined.

For assay [2], the system named is NK cell compartment. The settings on record: uninterrupted, extended-duration treatment, six days each week; Fernandes et al. 2015; cited from earlier work.
For assay [3], the system named is NK cells. Nature of the assay: NK cell IFNγ production by intracellular flow cytometry after two-day in vivo treatment. Also noted: species or system mice. Conditions: two-day 3AC vs vehicle. The protocol: FIGS. 3B-3E show activation of NK cells and T cells following exposure to the SHIP1 inhibitor 3AC in vivo. NK cells from two-day 3AC- or vehicle-treated mice were stimulated by incubation on uncoated plates, on plates coated with anti-NK1.1, anti-NKp46, or anti-NKG2D antibody, or on uncoated plates but in the presence of PMA and ionomycin. Representative flow plots (FIG. 3B) and box and whisker plots (FIG. 3C) show the frequency of NK cell production of IFNγ determined by intracellular flow cytometry. […] Anti-CD107a (LAMP-1) PE antibody was added for the final 5 hours of incubation. Degranulation of CD8+ T cells was determined by analysis of CD107a expression by flow cytometry. […]
SHIP1 is recruited directly to the T cell receptor (TcR), as well as to the scaffolding protein Dokl that limits T cell activation by the TcR (Reginald, K., Revisiting the timing of action of the PAG adaptor using quantitative proteomics analysis of primary T cells. J Immunol. (2015); 195: 5472-5481; Waterman, P. M. et al., The inositol 5phosphatase SHIP-1 and adaptors Dok-1 and 2 play central roles in CD4-mediated inhibitory signaling. Immunol Lett. (2012); 143: 122-130; Freeburn, R. W. et al., Evidence that SHIP-1 contributes to phosphatidylinositol 3,4,5-trisphosphate metabolism in T lymphocytes and can regulate novel phosphoinositide 3-kinase effectors. […]

Setting [4] is: splenic CD8+ T cells, two-day 3AC vs vehicle.

In the case of `CC(C)CCC[C@@H](C)[C@H]1CC[C@H]2[C@@H]3CCC4C[C@H](N)CC[C@]4(C)[C@H]3CC[C@]12C` (stereo partly drawn) [Compound 3AC, 3-α-aminocholestane], in assay [1] (setting [4]), the “percentage of activated CD8 T cells (CD69 expression)” value is listed as “significantly increased” and the “surface expression of CD69 amongst CD8 T cells” value was “increased”. Besides, in assay [1] (splenic CD8 T cells, crosslinking of TcR and CD28 (anti-CD3, anti-CD28) overnight), the “LAMP-1 (CD107a) expression of CD8 T cells (degranulation)” value is “increased frequency”. Also, in assay [2], the “NK cell compartment function (acute rejection of MHC-I mismatched BM graft)” value is reported as “disabled NK cell compartment”. For the same compound, the “NK cell IFNγ production” value in assay [3] (stimulated with PMA and ionomycin) is on record as “no difference”. The “NK cell IFNγ production” value in assay [3] (stimulation with anti-NK1.1, anti-NKp46 or anti-NKG2D) is recorded as “significantly increased”.

The values above are taken from US11952328B2, “Selective ship inhibitors for treating disease” (THE RESEARCH FOUNDATION FOR THE STATE UNIVERSITY OF NEW YORK, priority 2018, dated 2024).
